Data published in PMC11472313, “Development of Fragment-Based Inhibitors of the Bacterial Deacetylase LpxC with Low Nanomolar Activity” (Journal of Medicinal Chemistry, 2024).

Test system: LpxC–9 complex
Assay: NMR-ILOE (interligand NOESY) of fragment hits with LpxC and 9
Settings: fragment hits binding the LpxC–9 complex by STD and WaterLogsy; 6 μM LpxC
Protocol: In order to find fragments specifically addressing the UDP-binding pocket, which can be linked to the LpxC inhibitors, a fragment screen was performed against LpxC bound to 9. First, 650 fragments in cocktails of five were tested for binding to the LpxC–9 complex using STD-NMR and WaterLogsy experiments. Then, fragment hits identified as potential binders were tested one by one against the LpxC–9 complex by STD-NMR and WaterLogsy experiments performed under identical experimental conditions. A total of 97 fragment hits were identified as binders, leading to a hit rate of 15%.
Then, NMR-ILOE experiments were performed with selected fragment hits in the presence of LpxC and the unsubstituted hydroxamic acid 9. This allowed the identification of fragments that bind in the enzyme’s UDP-binding pocket near the methylene group in the α-position of the inhibitor’s hydroxamate moiety. Weak interligand NOESY peaks were observed between inhibitor 9 and nine fragments. By contrast, no interligand NOESY peaks were observed between compound 9 and the other ten fragments. […] Unexpectedly, we also observed interligand NOESY between the fragment protons and protons of the morpholino moiety.
Standard 1D and STD NMR spectra were acquired at 20 °C with a Bruker 600 MHz NMR spectrometer equipped with a 5 mm cryoprobe. Parameters for the STD experiments (saturation frequency and saturation time) were identical for all samples. […] STD saturation time was 2 s. WaterLOGSY mixing time was 1.5 s. Two NOESY experiments were recorded with mixing times of 0.6 and 0.3 s. STD and WaterLOGSY spectra were recorded with the same NMR tubes containing 3 μM LpxC, compound 9 at 500 μM, and fragments at 500 μM. For NOESY experiments, NMR tubes contained 6 μM LpxC.
Temperature was set to 293 K for all NMR experiments.

SMILES	Inter-Ligand NOESY peaks between the fragment and 9
O=c1ccn([C@@H]2O[C@H](CO)[C@@H](O)[C@H]2O)c(=O)[nH]1 [F15]	no
O=c1cc[nH]c(=O)[nH]1 [F16]	no
Nc1cccc(-c2cnco2)c1 [F17]	no
O=C1OCc2ccccc21 [F18]	no
c1ccc(Cn2ccnc2)cc1 [F19]	yes
